Test results as given in patent US8129521B2, “One pot synthesis of tetrazole derivatives of rapamycin” (Abbott Laboratories, priority 2005, dated 2012).

Tests used:
Assay type in all cases: physicochemical
[1] = Stability of zotarolimus on storage (potency over time, no anti-oxidant)
Experimental: Several lots of zotarolimus prepared by the one-pot methods lost significant potency over time. The potency loss was higher at increased temperature, but there was no apparent change in the impurity profile. Table 2 presents the potency of a lot of zotarolimus at various time intervals and temperature conditions. […] This loss was exacerbated in a sealed container when held at 40° C.—from 96.0% to 37.4% over just two months.

[2] = Zotarolimus stability with various concentrations of BHT
Experimental: A stability study was carried out to prevent this oxidation using phenolic anti-oxidants and identified BHT as a suitable compound. Tables 3 and 4 present stability data using BHT at various concentrations (% represented w/w) and temperatures.

[3] = Equilibration studies of pyran and oxepane forms of zotarolimus without buffer (acetonitrile/water, C-18 HPLC); conditions: non-buffered, 66% acetonitrile in water
Experimental: Studies were also carried out under non-buffered conditions in a solvent mixture of acetonitrile/water. Multiple injections of zotarolimus were performed on a C-18 Altima column (Alltech Associates, Inc.; Deerfield, Ill.) using 66% acetonitrile in water in a non-buffered media. The pyran and oxepane forms were collected. These forms were re-injected on C-18 column to study the equilibrium ratio at various intervals. […] These observations confirmed that zotarolimus exists in an equilibrium mixture of […] pyran (1) vs. oxepane (2) forms.

CO[C@H]1C[C@@H]2CC[C@@H](C)[C@@](O)(O2)C(=O)C(=O)N2CCCC[C@H]2C(=O)O[C@H]([C@H](C)C[C@@H]2CC[C@H](n3cnnn3)[C@H](OC)C2)CC(=O)[C@H](C)/C=C(\C)[C@@H](O)[C@@H](OC)C(=O)[C@H](C)C[C@H](C)/C=C/C=C/C=C/1C [zotarolimus, 40-epi-(1-tetrazolyl)-rapamycin] gave a potency ([1]; storage 5° C. (sealed), 1 month after synthesis) of 95.0%, a potency ([1]; storage 5° C. (sealed), 2 months after synthesis) of 95.4% and a potency ([1]; storage 5° C. (sealed), 2 weeks after synthesis) of 98.2%. The potency ([1]; storage 5° C. (sealed), 3 months after synthesis) was 95.1%, the potency ([1]; storage 5° C. (sealed), Initial) was 95.7% and the potency ([1]; storage 25° C. (sealed), 1 month after synthesis) was 88.8%. It also gave a potency ([1]; storage 25° C. (sealed), 2 months after synthesis) of 81.6%, a potency ([1]; storage 25° C. (sealed), 2 weeks after synthesis) of 95.7% and a potency ([1]; storage 25° C. (sealed), 3 months after synthesis) of 69.8%. For the same compound, the potency ([1]; storage 25° C. (sealed), Initial) was 95.1%, the potency ([1]; storage 25° C. (unsealed), 1 month after synthesis) was 91.6% and the potency ([1]; storage 25° C. (unsealed), 2 months after synthesis) was 87.1%. For the same compound, the potency ([1]; storage 25° C. (unsealed), 2 weeks after synthesis) was 98.0%, the potency ([1]; storage 25° C. (unsealed), 3 months after synthesis) was 75.5% and the potency ([1]; storage 25° C. (unsealed), Initial) was 95.5%. It also gave a potency ([1]; storage 40° C. (sealed), 1 month after synthesis) of 61.9%, a potency ([1]; storage 40° C. (sealed), 2 months after synthesis) of 37.4% and a potency ([1]; storage 40° C. (sealed), 2 weeks after synthesis) of 81.1%. The potency ([1]; storage 40° C. (sealed), Initial) was 96%, the “stability at room temperature” value ([1]; without anti-oxidant) was “unstable at room temperature” and the potency ([2]; 4° C., BHT 0.0%, 0 weeks) was 97.2%. It also gave a potency ([2]; 4° C., BHT 0.0%, 2 weeks) of 95.2%, a potency ([2]; 4° C., BHT 0.0%, 4 weeks) of 96.4% and a potency ([2]; 4° C., BHT 0.0%, 6 weeks) of 96.6%. For the same compound, the potency ([2]; 4° C., BHT 0.0%, 8 weeks) was 97.5%, the potency ([2]; 4° C., BHT 0.0%, 12 weeks) was 95.9% and the potency ([2]; 4° C., BHT 0.1%, 0 weeks) was 96.7%. For the same compound, the potency ([2]; 4° C., BHT 0.1%, 2 weeks) was 96.7%, the potency ([2]; 4° C., BHT 0.1%, 4 weeks) was 97.3% and the potency ([2]; 4° C., BHT 0.1%, 6 weeks) was 96.8%. It also gave a potency ([2]; 4° C., BHT 0.1%, 8 weeks) of 96.9%, a potency ([2]; 4° C., BHT 0.1%, 12 weeks) of 96.8% and a potency ([2]; 4° C., BHT 0.2%, 0 weeks) of 96.3%. The potency ([2]; 4° C., BHT 0.2%, 2 weeks) was 96.7%, the potency ([2]; 4° C., BHT 0.2%, 4 weeks) was 97.5% and the potency ([2]; 4° C., BHT 0.2%, 6 weeks) was 96.9%. For the same compound, the potency ([2]; 4° C., BHT 0.2%, 8 weeks) was 96.9%, the potency ([2]; 4° C., BHT 0.2%, 12 weeks) was 96.8% and the potency ([2]; 4° C., BHT 0.5%, 0 weeks) was 96.5%. The potency ([2]; 4° C., BHT 0.5%, 2 weeks) was 96.5%, the potency ([2]; 4° C., BHT 0.5%, 4 weeks) was 96.2% and the potency ([2]; 4° C., BHT 0.5%, 6 weeks) was 95.7%. It also gave a potency ([2]; 4° C., BHT 0.5%, 8 weeks) of 96.9%, a potency ([2]; 4° C., BHT 1.0%, 0 weeks) of 95.9% and a potency ([2]; 4° C., BHT 1.0%, 2 weeks) of 96.3%. It also gave a potency ([2]; 4° C., BHT 1.0%, 4 weeks) of 96.6%, a potency ([2]; 4° C., BHT 1.0%, 6 weeks) of 96.1% and a potency ([2]; 4° C., BHT 1.0%, 8 weeks) of 96.9%. The potency ([2]; 4° C., BHT 1.0%, 12 weeks) was 95.5%, the potency ([2]; 40° C., BHT (w/w) 0.1%, 0 weeks) was 96.7% and the potency ([2]; 40° C., BHT (w/w) 0.1%, 2 weeks) was 96.5%. For the same compound, the potency ([2]; 40° C., BHT (w/w) 0.1%, 4 weeks) was 96.9%, the potency ([2]; 40° C., BHT (w/w) 0.1%, 6 weeks) was 96.1% and the potency ([2]; 40° C., BHT (w/w) 0.1%, 8 weeks) was 96.2%. It also gave a potency ([2]; 40° C., BHT (w/w) 0.1%, 12 weeks) of 95.6%, a potency ([2]; 40° C., BHT (w/w) 0.2%, 0 weeks) of 96.3% and a potency ([2]; 40° C., BHT (w/w) 0.2%, 2 weeks) of 96.6%. It also gave a potency ([2]; 40° C., BHT (w/w) 0.2%, 4 weeks) of 97.2%, a potency ([2]; 40° C., BHT (w/w) 0.2%, 6 weeks) of 97.1% and a potency ([2]; 40° C., BHT (w/w) 0.2%, 8 weeks) of 97.0%. For the same compound, the potency ([2]; 40° C., BHT (w/w) 0.5%, 0 weeks) was 96.5%, the potency ([2]; 40° C., BHT (w/w) 0.5%, 2 weeks) was 96.1% and the potency ([2]; 40° C., BHT (w/w) 0.5%, 4 weeks) was 96.4%. For the same compound, the potency ([2]; 40° C., BHT (w/w) 0.5%, 6 weeks) was 95.7%, the potency ([2]; 40° C., BHT (w/w) 0.5%, 8 weeks) was 96.1% and the potency ([2]; 40° C., BHT (w/w) 0.5%, 12 weeks) was 95.9%. For the same compound, the potency ([2]; 40° C., BHT (w/w) 1.0%, 0 weeks) was 95.9%, the potency ([2]; 40° C., BHT (w/w) 1.0%, 2 weeks) was 95.4% and the potency ([2]; 40° C., BHT (w/w) 1.0%, 4 weeks) was 96.4%. The potency ([2]; 40° C., BHT (w/w) 1.0%, 6 weeks) was 95.6%, the potency ([2]; 40° C., BHT (w/w) 1.0%, 8 weeks) was 96.5% and the potency ([2]; 40° C., BHT (w/w) 1.0%, 12 weeks) was 95.8%. For the same compound, the “time to complete equilibration between two isomers” value [3] was 7 to 8 h.
